Drawing on US11331369B2, “Endoparasitic depsipeptides” (Zoetis Services LLC, priority 2017, dated 2022), this text covers minimal effective concentration for 10 compounds.

SMILES strings stand for the structures.

The assay relates to microfilariae of Dirofilaria immitis. The assay can be described thus: Dirofilaria immitis, Microfilaria (DiMF) In vitro Assay. The format is cell-based. The note with it: 72 h, read-out: DiMF Minimum Effective Dose (MED), approximately 72 hours incubation, microfilariae assessed for survival or paralysis.
For the compound `Cc1cn(Cc2ccc(C[C@H]3OC(=O)[C@H](CC(C)C)N(C)C(=O)[C@@H](C)OC(=O)[C@H](CC(C)C)N(C)C(=O)[C@@H](Cc4ccc(Cn5cc(C)nc5C)cc4)OC(=O)[C@H](CC(C)C)N(C)C(=O)[C@@H](C)OC(=O)[C@H](CC(C)C)N(C)C3=O)cc2)c(C)n1` [Example 6-5, (3S,6R,9S,12R,15S,18R,21S,24R)-6,18-bis(4-((2,4-dimethyl-1H-imidazol-1-yl)methyl)benzyl)-3,9,15,21-tetraisobutyl-4,10,12,16,22,24-hexamethyl-1,7,13,19-tetraoxa-4,10,16,22-tetraazacyclotetracosan-2,5,8,11,14,17,20,23-octaone], the minimal effective concentration is 0.01 to 0.1 µM.

As to `CC(C)C[C@H]1C(=O)O[C@H](Cc2ccc(Cn3cc4ccccc4n3)cc2)C(=O)N(C)[C@@H](CC(C)C)C(=O)O[C@H](C)C(=O)N(C)[C@@H](CC(C)C)C(=O)O[C@H](Cc2ccc(Cn3cc4ccccc4n3)cc2)C(=O)N(C)[C@@H](CC(C)C)C(=O)O[C@H](C)C(=O)N1C` [Example 9-35, (3S,6R,9S,12R,15S,18R,21S,24R)-6,18-bis(4-((2H-indazol-2-yl)methyl)benzyl)-3,9,15,21-tetraisobutyl-4,10,12,16,22,24-hexamethyl-1,7,13,19-tetraoxa-4,10,16,22-tetraazacyclotetracosan-2,5,8,11,14,17,20,23-octaone], the minimal effective concentration was 0.01 to 0.1 µM.

`CC(C)C[C@H]1C(=O)O[C@H](Cc2ccc(Cn3cc([N+](=O)[O-])cn3)cc2)C(=O)N(C)[C@@H](CC(C)C)C(=O)O[C@H](C)C(=O)N(C)[C@@H](CC(C)C)C(=O)O[C@H](Cc2ccccc2)C(=O)N(C)[C@@H](CC(C)C)C(=O)O[C@H](C)C(=O)N1C` [Example 2-29, (3S,6R,9S,12R,15S,18R,21S,24R)-6-benzyl-3,9,15,21-tetraisobutyl-4,10,12,16,22,24-hexamethyl-18-(4-((4-nitro-1H-pyrazol-1-yl)methyl)benzyl)-1,7,13,19-tetraoxa-4,10,16,22-tetraazacyclotetracosan-2,5,8,11,14,17,20,23-octaone]: the minimal effective concentration is 0.001 to 0.01 µM.

On to `CC(C)C[C@H]1C(=O)O[C@H](Cc2ccc(Cn3ccnc3I)cc2)C(=O)N(C)[C@@H](CC(C)C)C(=O)O[C@H](C)C(=O)N(C)[C@@H](CC(C)C)C(=O)O[C@H](Cc2ccc(Cn3ccnc3I)cc2)C(=O)N(C)[C@@H](CC(C)C)C(=O)O[C@H](C)C(=O)N1C` [Example 6-10, (3S,6R,9S,12R,15S,18R,21S,24R)-6,18-bis(4-((2-iodo-1H-imidazol-1-yl)methyl)benzyl)-3,9,15,21-tetraisobutyl-4,10,12,16,22,24-hexamethyl-1,7,13,19-tetraoxa-4,10,16,22-tetraazacyclotetracosan-2,5,8,11,14,17,20,23-octaone], for which the minimal effective concentration was 0.01 to 0.1 µM.

Turning to `CC(C)C[C@H]1C(=O)O[C@H](Cc2cccc(Cn3cc([N+](=O)[O-])cn3)c2)C(=O)N(C)[C@@H](CC(C)C)C(=O)O[C@H](C)C(=O)N(C)[C@@H](CC(C)C)C(=O)O[C@H](Cc2ccccc2)C(=O)N(C)[C@@H](CC(C)C)C(=O)O[C@H](C)C(=O)N1C` [Example 5-2, (3S,6R,9S,12R,15S,18R,21S,24R)-6-benzyl-3,9,15,21-tetraisobutyl-4,10,12,16,22,24-hexamethyl-18-(3-((4-nitro-1H-pyrazol-1-yl)methyl)benzyl)-1,7,13,19-tetraoxa-4,10,16,22-tetraazacyclotetracosan-2,5,8, 11,14,17,20,23-octaone], the minimal effective concentration was in the range of 0.001 to 0.01 µM.

Take `CC(C)C[C@H]1C(=O)O[C@H](Cc2ccc(Cn3cc(S(=O)(=O)N4CCCC4)cn3)cc2)C(=O)N(C)[C@@H](CC(C)C)C(=O)O[C@H](C)C(=O)N(C)[C@@H](CC(C)C)C(=O)O[C@H](Cc2ccccc2)C(=O)N(C)[C@@H](CC(C)C)C(=O)O[C@H](C)C(=O)N1C` [Example 2-24, (3S,6R,9S,12R,15S,18R,21S,24R)-6-benzyl-3,9,15,21-tetraisobutyl-4,10,12,16,22,24-hexamethyl-18-(4-((4-(pyrrolidin-1-ylsulfonyl)-1H-pyrazol-1-yl)methyl)benzyl)-1,7,13,19-tetraoxa-4,10,16,22-tetraazacyclotetracosan-2,5,8,11,14,17,20,23-octaone]: the minimal effective concentration lay in the range of 0.01 to 0.1 µM.

Take `CC(C)C[C@H]1C(=O)O[C@H](Cc2ccc(Cn3ccc(CO)n3)cc2)C(=O)N(C)[C@@H](CC(C)C)C(=O)O[C@H](C)C(=O)N(C)[C@@H](CC(C)C)C(=O)O[C@H](Cc2ccc(Cn3ccc(CO)n3)cc2)C(=O)N(C)[C@@H](CC(C)C)C(=O)O[C@H](C)C(=O)N1C` [Example 1b-97, (3S,6R,9S,12R,15S,18R,21S,24R)-6,18-bis(4-((3-(hydroxymethyl)-1H-pyrazol-1-yl)methyl)benzyl)-3,9,15,21-tetraisobutyl-4,10,12,16,22,24-hexamethyl-1,7,13,19-tetraoxa-4,10,16,22-tetraazacyclotetracosan-2,5,8,11,14,17,20,23-octaone]: the minimal effective concentration fell in the range of 0.01 to 0.1 µM.

For the compound `Cc1cnn(Cc2ccc(C[C@H]3OC(=O)[C@H](CC(C)C)N(C)C(=O)[C@@H](C)OC(=O)[C@H](CC(C)C)N(C)C(=O)[C@@H](Cc4ccc(Cn5nc(C)c(S(=O)(=O)N6CCCCC6)c5C)cc4)OC(=O)[C@H](CC(C)C)N(C)C(=O)[C@@H](C)OC(=O)[C@H](CC(C)C)N(C)C3=O)cc2)c1` [Example 1a-25, (3S,6R,9S,12R,15S,18R,21S,24R)-6-(4-((3,5-dimethyl-4-(piperidin-1-ylsulfonyl)-1H-pyrazol-1-yl)methyl)benzyl)-3,9,15,21-tetraisobutyl-4,10,12,16,22,24-hexamethyl-18-(4-((4-methyl-1H-pyrazol-1-yl)methyl)benzyl)-1,7,13,19-tetraoxa-4,10,16,22-tetraazacyclotetracosan-2,5,8,11,14,17,20,23-octaone], the minimal effective concentration was 0.01 to 0.1 µM.

`CC(C)C[C@H]1C(=O)O[C@H](Cc2ccc(Cn3cc(-c4ccccc4)nn3)cc2)C(=O)N(C)[C@@H](CC(C)C)C(=O)O[C@H](C)C(=O)N(C)[C@@H](CC(C)C)C(=O)O[C@H](Cc2ccccc2)C(=O)N(C)[C@@H](CC(C)C)C(=O)O[C@H](C)C(=O)N1C` [Example 9-33, (3S,6R,9S,12R,15S,18R,21S,24R)-6-benzyl-3,9,15,21-tetraisobutyl-4,10,12,16,22,24-hexamethyl-18-(4-((4-phenyl-1H-1,2,3-triazol-1-yl)methyl)benzyl)-1,7,13,19-tetraoxa-4,10,16,22-tetraazacyclotetracosan-2,5,8,11,14,17,20,23-octaone]: the minimal effective concentration is 0.01 to 0.1 µM.

For `CC(C)C[C@H]1C(=O)O[C@H](Cc2ccc(Cn3ccnc3CO)cc2)C(=O)N(C)[C@@H](CC(C)C)C(=O)O[C@H](C)C(=O)N(C)[C@@H](CC(C)C)C(=O)O[C@H](Cc2ccc(Cn3ccnc3CO)cc2)C(=O)N(C)[C@@H](CC(C)C)C(=O)O[C@H](C)C(=O)N1C` [Example 6-16, (3S,6R,9S,12R,15S,18R,21S,24R)-6,18-bis(4-((2-(hydroxymethyl)-1H-imidazol-1-yl)methyl)benzyl)-3,9,15,21-tetraisobutyl-4,10,12,16,22,24-hexamethyl-1,7,13,19-tetraoxa-4,10,16,22-tetraazacyclotetracosan-2,5,8,11,14,17,20,23-octaone], the minimal effective concentration is 0.001 to 0.01 µM.
